The record followed here is patent publication US12497362B2, “Cyclopentapyrrole orexin receptor agonists” (Merck Sharp & Dohme LLC, priority 2020, dated 2025).

The assay concerns the target T1, human OX2R (Homo sapiens, UniProt O43614).
T1 construct: expressed in transfected cells; host or cells: CHO (Chinese hamster ovary) cells, grown under G418 selection
T1 sequence (O43614 1-444): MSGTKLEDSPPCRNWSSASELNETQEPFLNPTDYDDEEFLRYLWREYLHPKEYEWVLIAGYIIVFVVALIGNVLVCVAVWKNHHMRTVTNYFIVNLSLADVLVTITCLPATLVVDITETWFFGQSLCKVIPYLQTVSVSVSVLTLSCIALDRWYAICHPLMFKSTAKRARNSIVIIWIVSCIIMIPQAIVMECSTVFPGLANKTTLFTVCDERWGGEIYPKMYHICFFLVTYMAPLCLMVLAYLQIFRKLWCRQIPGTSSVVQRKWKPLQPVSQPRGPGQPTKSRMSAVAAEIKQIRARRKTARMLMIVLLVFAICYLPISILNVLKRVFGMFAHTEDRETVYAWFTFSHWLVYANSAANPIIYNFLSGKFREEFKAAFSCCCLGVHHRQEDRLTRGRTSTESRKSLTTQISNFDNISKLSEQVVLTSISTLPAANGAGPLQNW
The assay is described as follows: IPOne (IP-1 accumulation) orexin receptor agonist assay in CHO cells expressing human OX2R. It is filed as cell-based. The conditions noted are these: hOX2R IP-One assay, percent of mean max effect of a reference compound at 1 uM with 100% activity established by comparison to Orexin A. An excerpt: The utility of the compounds in accordance with the present invention as orexin receptor OX1R and/or OX2R agonists may be readily determined without undue experimentation by methodology well known in the art. Both the OX1R and/or OX2R G-coupled protein receptors (GPCRs) couple through the Gαq signaling pathway, which ultimately promotes calcium mobilization via inositol triphosphate (IP3) production. The half-life of IP-3 is relatively short, being rapidly metabolized to inositol monophosphate (IP-1), which can be readily detected using a commercially available assay kit (IP-One; Cisbio; cat #621PAPEC) coupled with a cell line expressing the target receptor(s) of interest. The utility of the compounds in accordance with the present invention as orexin receptor OX1R and/or OX2R agonists may be determined utilizing this assay.
In a typical experiment, the OX1 and OX2 receptor agonist activity is determined in accordance with the following general experimental method. Chinese hamster ovary (CHO) cells expressing human OX1R and/or the human OX2R were grown in Iscove's modified DMEM containing glutaMAX™, 1% G418, 100 U/mL penicillin, 100 μg/mL streptomycin and 10% heat-inactivated qualified fetal bovine serum (FBS). The OX2R cells were seeded at 10,000 cells/well/50 μL and the OX1R cells were seeded at 20,000 cells/well/50 μL into 384-well white tissue culture plates (Greiner; cat #781080). All cell/media reagents were from GIBCO-Invitrogen Corp. The seeded cell plate(s) were incubated at 37° C. with 5% CO2 and 85% humidity for 20-24 hours. On the day of the assay, assay-ready compound plates were prepared using an acoustic liquid handler (ECHO; Labcyte), which dispensed sufficient volume of test compound stock (10 mM in DMSO) or 100% DMSO to prepare 10 point, ½-log dilutions in a final volume of 202.5 nL/well in all test wells of a 384-well diamond plate (Labcyte). Following completion of assay-ready plates, importantly, the next three steps were performed with minimal delay: 1) 20 μl of 1× stimulation buffer was added to the compound plate using a Multidrop Combi (small cassette, Thermo Fisher Scientific cat #24073290); 2) culture medium was removed from the cell plate using the Bluewasher plate washer (gentle spin; BlueCatBio); 3) 14 μl of compound/stimulation buffer mixture was added to the cell plate using a Bravo liquid handler (Agilent) prior to incubating cell plates at 37° C. with 5% CO2 and 85% humidity for 1 or 2 hours (OX1R and OX2R, respectively). During this incubation, IP-one detection reagents were prepared (38:1:1 lysis buffer:D2:AB-cryptate reagents). Six μL of mixed detection reagents were added to the cell plate using a Multidrop Combi (small cassette, Thermo Fisher Scientific cat #24073290) and incubated 60 minutes at room temperature in the dark. Fluorescence signal was detected using an Envision plate reader (Perkin Elmer) [LANCE/DELFIA Dual Enh (Em: APC 665; Ex: Cy5 620)].
For each compound, data were fit to a four parameter logistic fit (ActivityBase software) and the EC50 was reported as the inflection point of the resulting curve. Percent effect for each test compound was determined as the percentage of sample raw value/mean max effect, where the mean max effect was derived from the mean raw value of 32 control wells per assay plate (using Orexin A (cat #003-30) at 1 μM for human OX1R and a reference compound at 1 uM with 100% activity previously established by comparison to Orexin A for human OX2R). The intrinsic orexin receptor agonist activity of a compound which may be used in the present invention may be determined by these assays.
Usually Emax stands for the maximal effect, on the per cent scale that the assay sets. For the compound `COC(=O)N1[C@@H]2CCC[C@@H]2[C@H](NS(C)(=O)=O)[C@@H]1CO[C@H]1CC[C@@H](c2cccc(F)c2)CC1` [Example 1, methyl (2R,3S,3aS,6aR)-2-((((1s,4S)-4-(3-fluorophenyl)cyclohexyl)oxy)methyl)-3-(methylsulfonamido)hexahydrocyclopenta[b]pyrrole-1(2H)-carboxylate], the Emax was 101%.
The figure for `COC(=O)N1[C@@H]2CCC[C@@H]2[C@H](NS(=O)(=O)N(C)C)[C@@H]1CO[C@H]1CC[C@@H](c2cccc(F)c2)CC1` [Example 2, methyl (2R,3S,3aS,6aR)-3-((N,N-dimethylsulfamoyl)amino)-2-((((1s,4S)-4-(3-fluorophenyl)cyclohexyl)oxy)methyl)hexahydrocyclopenta[b]pyrrole-1(2H)-carboxylate] is 101%; for `CNS(=O)(=O)N[C@H]1[C@H]2CCC[C@H]2N(C(=O)OC)[C@H]1CO[C@H]1CC[C@@H](c2cccc(F)c2)CC1` [Example 3, methyl (2R,3S,3aS,6aR)-2-((((1s,4S)-4-(3-fluorophenyl)cyclohexyl)oxy)methyl)-3-((N-methylsulfamoyl)amino)hexahydrocyclopenta[b]pyrrole-1(2H)-carboxylate] it is 98%; for `COC(=O)N1[C@@H]2COC[C@@H]2[C@H](NS(C)(=O)=O)[C@@H]1CO[C@H]1CC[C@@H](c2cccc(F)c2)CC1` [Example 4, methyl (2R,3S,3aS,6aS)-2-((((1s,4S)-4-(3-fluorophenyl)cyclohexyl)oxy)methyl)-3-(methylsulfonamido)hexahydro-1H-furo[3,4-b]pyrrole-1-carboxylate] it is 101%.
To `COC(=O)N1[C@@H]2COC[C@@H]2[C@H](NS(=O)(=O)N(C)C)[C@@H]1CO[C@H]1CC[C@@H](c2cccc(F)c2)CC1` [Example 5, methyl (2R,3S,3aS,6aS)-3-((N,N-dimethylsulfamoyl)amino)-2-((((1s,4S)-4-(3-fluorophenyl)cyclohexyl)oxy)methyl)hexahydro-1H-furo[3,4-b]pyrrole-1-carboxylate] belongs 101%; to `COC(=O)N1[C@@H]2COC[C@@H]2[C@H](NS(=O)(=O)CF)[C@@H]1CO[C@H]1CC[C@@H](c2cccc(F)c2)CC1` [Example 6, methyl (2R,3S,3aS,6aS)-3-((fluoromethyl)sulfonamido)-2-((((1s,4S)-4-(3-fluorophenyl)-cyclohexyl)oxy)methyl)hexahydro-1H-furo[3,4-b]pyrrole-1-carboxylate], 102%; to `COC(=O)N1[C@@H]2CCC[C@@H]2[C@H](NS(C)(=O)=O)[C@@H]1CO[C@H]1CC[C@@H](c2ccccc2)CC1` [Example 7, Methyl (2R,3S,3aS,6aR)-3-(methylsulfonamido)-2-((((1s,4S)-4-phenylcyclohexyl)oxy)-methyl)hexahydrocyclopenta[b]pyrrole-1(2H)-carboxylate], 101%.
In the case of `COC(=O)N1[C@@H]2CCC[C@@H]2[C@H](NS(=O)(=O)N(C)C)[C@@H]1CO[C@H]1CC[C@@H](c2ccccc2)CC1` [Example 8, Methyl (2R,3S,3aS,6aR)-3-((N,N-dimethylsulfamoyl)amino)-2-((((1s,4S)-4-phenyl-cyclohexyl)oxy)methyl)hexahydrocyclopenta[b]pyrrole-1(2H)-carboxylate], the Emax came to 98%.
In turn, `COC(=O)N1[C@@H]2CCC[C@@H]2[C@H](NS(C)(=O)=O)[C@@H]1COC1CCN(c2ncc(F)cn2)CC1` [Example 9, Methyl (2R,3S,3aS,6aR)-2-(((1-(5-fluoropyrimidin-2-yl)piperidin-4-yl)oxy)methyl)-3-(methylsulfonamido)hexahydrocyclopenta[b]pyrrole-1(2H)-carboxylate] yielded an Emax of 97%.
The figure for `CC(C)OC(=O)N1[C@@H]2CCC[C@@H]2[C@H](NS(C)(=O)=O)[C@@H]1COC1CCN(c2ncc(F)cn2)CC1` [Example 10, Isopropyl (2R,3S,3aS,6aR)-2-(((1-(5-fluoropyrimidin-2-yl)piperidin-4-yl)oxy)methyl)-3-(methylsulfonamido)hexahydrocyclopenta[b]pyrrole-1(2H)-carboxylate] is 103%; for `COC(=O)N1[C@@H]2CC[C@@H]2[C@H](NS(C)(=O)=O)[C@@H]1CO[C@H]1CC[C@@H](c2ccccc2)CC1` [Example 11, methyl (1R,3R,4S,5S)-4-(methylsulfonamido)-3-((((1s,4S)-4-phenylcyclohexyl)oxy)methyl)-2-azabicyclo[3.2.0]heptane-2-carboxylate] it is 103%.
